Experimental data: article PMC5378280 (Cancer Science, 2017)

Assays:
[1] = Pharmacokinetics of carfilzomib in plasma; assay type: in vivo, human; settings: compared with carfilzomib monotherapy study
Japanese RRMM patients = settings: carfilzomib monotherapy; cited from earlier work

Question: With CC(C)C[C@H](NC(=O)[C@H](CCc1ccccc1)NC(=O)CN1CCOCC1)C(=O)N[C@@H](Cc1ccccc1)C(=O)N[C@@H](CC(C)C)C(=O)[C@@]1(C)CO1 [carfilzomib] as the compound, how does the “Effect of lenalidomide and dexamethasone on carfilzomib pharmacokinetics” value [1] read?
Answer: did not appear to be affected

Question: And the ORR (Japanese RRMM patients)?
Answer: 22.5%
